According to patent US10292945B2, “Dressings that contain active substance” (BEIERSDORF AG, priority 2011, dated 2019):

Experiment: Active substance release from acrylate adhesive matrix into pig skin by Franz's cells, HPLC determination
Type: in vitro ADME
Excerpt: The release of the active ingredients within the product is advantageously adjusted such that an effect can still be perceived even after a period of 2 days. The delayed effect of the active substances used is achieved here from combination of active substance content and auxiliaries. The release of the active substances can be controlled over a wide time range via the use of e.g. plasticizers and fillers. Examples of such systems are pain patches on the market that contain opiates such as fentanyl, which are applied over several days up to a week and ensure an absolutely uniform release of the active substance over the entire application time. For the determination of the release rate of vanillyl butyl ether (VBE) from e.g. acrylate compositions, it was incorporated into the adhesive compositions in an amount of 0.75% and the release was ascertained over the time in pig skin by means of Franz's cells. Determination of the released amounts into the full-thickness skin was then carried out by HPLC.
One possible measure to increase the active ingredient release is the use of solubilizers. […] For the two other additives, lower values were determined, meaning that decyl oleate (Cetiol V) in particular is a preferred solubilizer in the adhesive composition. […]

CCCCCCCC/C=C\CCCCCCCC(=O)OCCCCCCCCCC [Cetiol V, decyl oleate]
Effect of added solubilizer on released amount of VBE in pig skin: significant increase in the released amount of VBE
